Results from PubChem BioAssay (NCI).
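The compound was tested at five concentrations on cells cultured in 96-well plates, with a 48-hour exposure period. At the TGI there is no net growth.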

Assays:
Assay in all cases: growth of human tumour cells (NCI), 48 h
786-0 renal = tested on: 786-0 renal
A498 renal = tested on: A498 renal
A549 NSCLC = tested on: A549 NSCLC
ACHN renal = tested on: ACHN renal
BT-549 breast = tested on: BT-549 breast
CAKI-1 renal = tested on: CAKI-1 renal
CCRF-CEM leukemia = tested on: CCRF-CEM leukemia
COLO 205 colon = tested on: COLO 205 colon
DU-145 prostate = tested on: DU-145 prostate
EKVX NSCLC = tested on: EKVX NSCLC
HCC-2998 colon = tested on: HCC-2998 colon
HCT-116 colon = tested on: HCT-116 colon
HCT-15 colon = tested on: HCT-15 colon
HOP-62 NSCLC = tested on: HOP-62 NSCLC
HOP-92 NSCLC = tested on: HOP-92 NSCLC
HS 578T breast = tested on: HS 578T breast
HT29 colon = tested on: HT29 colon
IGROV1 ovarian = tested on: IGROV1 ovarian
K-562 leukemia = tested on: K-562 leukemia
KM12 colon = tested on: KM12 colon
LOX IMVI melanoma = tested on: LOX IMVI melanoma
M14 melanoma = tested on: M14 melanoma
MALME-3M melanoma = tested on: MALME-3M melanoma
MCF7 breast = tested on: MCF7 breast
MDA-MB-231 breast = tested on: MDA-MB-231 breast
MDA-MB-435 = tested on: MDA-MB-435
MDA-N = tested on: MDA-N
NCI-H226 lung = tested on: NCI-H226 lung
NCI-H23 lung = tested on: NCI-H23 lung
NCI-H460 lung = tested on: NCI-H460 lung
NCI-H522 lung = tested on: NCI-H522 lung
NCI/ADR-RES ovarian = tested on: NCI/ADR-RES ovarian
OVCAR-3 ovarian = tested on: OVCAR-3 ovarian
OVCAR-4 ovarian = tested on: OVCAR-4 ovarian
OVCAR-5 ovarian = tested on: OVCAR-5 ovarian
OVCAR-8 ovarian = tested on: OVCAR-8 ovarian
PC-3 prostate = tested on: PC-3 prostate
RPMI-8226 leukemia = tested on: RPMI-8226 leukemia
RXF 393 renal = tested on: RXF 393 renal
SF-268 CNS = tested on: SF-268 CNS
SF-295 CNS = tested on: SF-295 CNS
SF-539 CNS = tested on: SF-539 CNS
SK-MEL-2 melanoma = tested on: SK-MEL-2 melanoma
SK-MEL-28 melanoma = tested on: SK-MEL-28 melanoma
SK-MEL-5 melanoma = tested on: SK-MEL-5 melanoma
SK-OV-3 ovarian = tested on: SK-OV-3 ovarian
SN12C renal = tested on: SN12C renal
SNB-19 CNS = tested on: SNB-19 CNS
SW-620 colon = tested on: SW-620 colon
T-47D breast = tested on: T-47D breast
TK-10 renal = tested on: TK-10 renal
U251 CNS = tested on: U251 CNS
UACC-257 melanoma = tested on: UACC-257 melanoma
UACC-62 melanoma = tested on: UACC-62 melanoma
UO-31 renal = tested on: UO-31 renal
HL-60(TB) leukemia = tested on: HL-60(TB) leukemia
MOLT-4 leukemia = tested on: MOLT-4 leukemia
SNB-75 CNS = tested on: SNB-75 CNS
SR leukemia = tested on: SR leukemia

Measured: TGI

Cc1[nH]c(C)c(CN(C)C)c1CN(C)C
not listed: HL-60(TB) leukemia | MOLT-4 leukemia | SNB-75 CNS | SR leukemia
> 100 µM: all other assays above

COc1ccccc1-n1nnc2c(N)nc(N)nc21
not listed: HCC-2998 colon | RXF 393 renal
> 100 µM: all other assays above
